Source: patent publication US6713265B1 (Synaptic Pharmaceutical Corporation, priority 1999, dated 2004)

Columns and labels:
α1b = target: T1, α1b (Homo sapiens, UniProt P35368); experiment: Binding at cloned human α1b adrenergic receptor
T1 sequence (P35368 1-520): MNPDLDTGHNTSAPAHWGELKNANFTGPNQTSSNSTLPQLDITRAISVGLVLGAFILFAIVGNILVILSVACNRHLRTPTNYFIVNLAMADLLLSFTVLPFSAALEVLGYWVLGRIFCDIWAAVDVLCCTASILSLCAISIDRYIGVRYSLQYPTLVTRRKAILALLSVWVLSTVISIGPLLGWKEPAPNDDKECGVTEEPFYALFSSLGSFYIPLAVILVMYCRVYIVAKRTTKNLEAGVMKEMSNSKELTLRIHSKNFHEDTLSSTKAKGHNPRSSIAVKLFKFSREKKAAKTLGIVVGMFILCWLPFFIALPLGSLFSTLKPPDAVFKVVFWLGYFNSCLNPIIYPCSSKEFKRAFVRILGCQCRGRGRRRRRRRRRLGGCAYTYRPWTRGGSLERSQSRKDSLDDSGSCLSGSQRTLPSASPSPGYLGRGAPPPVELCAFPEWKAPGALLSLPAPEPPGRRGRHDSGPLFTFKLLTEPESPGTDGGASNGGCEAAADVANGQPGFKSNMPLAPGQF

5HT1Dα = 5HT1Dα (Homo sapiens, UniProt P28221); experiment: Binding at cloned human 5HT1Dα receptor
Procedure: (§1) The cell line for the 5HT1Dα receptor, designated as Ltk-8-30-84, was deposited on Apr. […] The cell for the 5HT1Dβ receptor, designated as Ltk-11, was deposited on Apr. […] Membrane preparations comprising these receptors were prepared as described below, and suspended in 50 mM Tris-HCl buffer (pH 7.4 at 37° C.) containing 10 mM MgCl2, 0.2 mM EDTA, 10 μM pargyline, and 0.1% ascorbate. The binding of compounds was determined in competition binding assays by incubation for 30 minutes at 37° C. in the presence of 5 nM [^3H]serotonin. Nonspecific binding was determined in the presence of 10 μM serotonin.

food intake = experiment: Food intake in food-deprived rats; type: in vivo, rat; details: 30 mg/kg i.p., after 24h food deprivation
Procedure: After receipt, the animals are individually housed for the duration of the study and allowed free access to normal food together with tap water. The animals are maintained in a room with a 12 h light/dark cycle (8:00 a.m. to 8:00 p.m. light) at 24° C. and monitored humidity. After placement into individual cages the rats undergo a 4 day equilibration period, during which they are habituated to their new environment and to eating a powdered or pellet diet NAFAG, Gossau, Switzerland).
At the end of the equilibration period, food is removed from the animals for 24 hours starting at 8:00 a.m. At the end of the fasting period compound or vehicle may be administered to the animals orally or by injection intraperitoneally or intravenously. After 10-60 min. food is returned to the animals and their food intake is monitored at various time periods during the following 24 hour period. The food intake of animals treated with test compound may be calculated as a percentage of the food intake of control animals (i.e., animals treated with vehicle). Alternatively, food intake for each group of animals subjected to a particular experimental condition may be expressed as the mean±S.E.M.
Measurements were performed two hours after administration of the test compound.

5HT7 = 5HT7 (Homo sapiens, UniProt P34969); experiment: Binding at cloned human 5HT7 receptor
α1a = target: T2, α1a (Homo sapiens, UniProt P35348); experiment: Binding at cloned human α1a adrenergic receptor
T2 sequence (P35348 1-466): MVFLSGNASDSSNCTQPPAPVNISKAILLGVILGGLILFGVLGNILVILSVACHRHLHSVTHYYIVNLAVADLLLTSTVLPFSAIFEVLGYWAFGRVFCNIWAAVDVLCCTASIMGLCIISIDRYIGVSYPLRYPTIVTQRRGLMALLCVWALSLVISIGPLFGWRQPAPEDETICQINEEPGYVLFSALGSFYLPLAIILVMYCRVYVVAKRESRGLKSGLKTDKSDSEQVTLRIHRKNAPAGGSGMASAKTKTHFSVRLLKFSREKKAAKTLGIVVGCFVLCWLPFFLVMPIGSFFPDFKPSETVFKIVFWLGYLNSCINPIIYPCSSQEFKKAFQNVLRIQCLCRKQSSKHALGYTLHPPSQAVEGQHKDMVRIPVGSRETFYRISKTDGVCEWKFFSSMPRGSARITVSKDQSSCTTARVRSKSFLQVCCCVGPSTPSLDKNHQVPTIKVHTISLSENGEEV

human Y2 receptor = target: T3, human Y2 receptor (Homo sapiens, UniProt P49146); experiment: ^125I-PYY binding to membranes, cloned human Y2 receptor; details: read-out: Binding Affinity Ki vs. ^125I-PYY, Human Receptor Y2; Table 14; stably transfected 293 cells (compound 1 also COS-7)
T3 construct: expressed in transfected cells; host or cells: COS-7 (transient)
T3 sequence (P49146 1-381): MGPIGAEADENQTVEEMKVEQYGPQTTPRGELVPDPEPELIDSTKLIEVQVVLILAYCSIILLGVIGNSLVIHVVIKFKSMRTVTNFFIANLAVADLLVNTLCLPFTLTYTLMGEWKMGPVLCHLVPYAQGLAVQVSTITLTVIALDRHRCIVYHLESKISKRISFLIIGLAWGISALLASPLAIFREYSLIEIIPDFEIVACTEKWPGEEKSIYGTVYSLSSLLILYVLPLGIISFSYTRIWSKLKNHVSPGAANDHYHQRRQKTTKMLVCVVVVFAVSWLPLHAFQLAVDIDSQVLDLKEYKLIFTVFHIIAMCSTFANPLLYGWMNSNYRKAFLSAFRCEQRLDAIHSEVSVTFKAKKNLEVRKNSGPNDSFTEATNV

human Y1 receptor = target: T4, human Y1 receptor (Homo sapiens, UniProt P25929); experiment: ^125I-PYY binding to membranes, cloned human Y1 receptor; details: read-out: Binding Affinity Ki vs. ^125I-PYY, Human Receptor Y1; Table 14; stably transfected 293 cells (compound 1 also COS-7)
T4 construct: expressed in transfected cells; host or cells: COS-7 (transient)
T4 sequence (P25929 1-384): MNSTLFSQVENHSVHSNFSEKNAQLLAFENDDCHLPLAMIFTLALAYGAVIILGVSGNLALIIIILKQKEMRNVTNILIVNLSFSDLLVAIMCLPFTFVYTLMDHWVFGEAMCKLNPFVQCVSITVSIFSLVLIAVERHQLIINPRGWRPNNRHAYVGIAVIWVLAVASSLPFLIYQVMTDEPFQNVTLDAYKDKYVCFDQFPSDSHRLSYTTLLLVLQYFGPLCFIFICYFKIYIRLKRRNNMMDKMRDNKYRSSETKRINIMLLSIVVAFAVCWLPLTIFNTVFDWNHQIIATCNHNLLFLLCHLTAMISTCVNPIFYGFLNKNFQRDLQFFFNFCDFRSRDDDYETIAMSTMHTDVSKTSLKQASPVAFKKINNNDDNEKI

5HT2 = target: T5, 5HT2 (Homo sapiens, UniProt P28223); experiment: Binding at cloned human 5HT2 receptor
T5 construct: expressed in transfected cells; host or cells: COS-7 (DEAE-dextran); the same paragraph also names the deposited cell line L-NGC-5HT2 (ATCC CRL 10287)
Procedure: Human 5HT2 Receptor: The coding sequence of the human 5HT2 receptor was obtained from a human brain cortex cDNA library, and cloned into the cloning site of pcEXV-3 eukaryotic expression vector. […] Nonspecific binding was defined by the addition of 10 μM mianserin.

α2c = target: T6, α2c (Homo sapiens, UniProt P18825); experiment: Binding at cloned human α2c adrenergic receptor; details: cloned human receptor
T6 sequence (P18825 1-462): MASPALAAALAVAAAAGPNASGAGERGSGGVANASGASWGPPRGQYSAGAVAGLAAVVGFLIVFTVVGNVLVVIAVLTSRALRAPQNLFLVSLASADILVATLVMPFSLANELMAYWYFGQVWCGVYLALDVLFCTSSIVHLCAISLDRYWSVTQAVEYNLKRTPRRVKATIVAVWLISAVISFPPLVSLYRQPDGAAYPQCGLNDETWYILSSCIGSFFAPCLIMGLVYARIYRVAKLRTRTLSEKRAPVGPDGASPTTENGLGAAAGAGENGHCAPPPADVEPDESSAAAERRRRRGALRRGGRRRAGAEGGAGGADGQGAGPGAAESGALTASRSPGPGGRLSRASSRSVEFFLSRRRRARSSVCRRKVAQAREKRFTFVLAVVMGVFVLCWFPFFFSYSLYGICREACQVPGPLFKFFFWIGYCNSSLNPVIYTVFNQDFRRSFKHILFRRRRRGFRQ

5HT1Dβ = target: T7, 5HT1Dβ (Homo sapiens, UniProt P28222); experiment: Binding at cloned human 5HT1Dβ receptor
T7 construct: expressed in transfected cells; host or cells: LM(tk-), line Ltk-11 (ATCC CRL 10422)
T7 sequence (P28222 whole entry): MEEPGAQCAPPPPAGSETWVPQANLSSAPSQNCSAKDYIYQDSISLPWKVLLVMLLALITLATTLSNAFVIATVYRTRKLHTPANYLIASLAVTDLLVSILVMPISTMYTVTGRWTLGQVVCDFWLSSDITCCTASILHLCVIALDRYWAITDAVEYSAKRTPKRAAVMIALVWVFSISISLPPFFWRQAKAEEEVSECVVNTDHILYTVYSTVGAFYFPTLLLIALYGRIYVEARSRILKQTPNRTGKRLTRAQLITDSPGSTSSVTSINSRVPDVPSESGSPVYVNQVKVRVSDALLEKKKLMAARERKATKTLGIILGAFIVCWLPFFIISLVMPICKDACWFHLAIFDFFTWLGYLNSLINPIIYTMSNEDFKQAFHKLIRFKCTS
Procedure: as §1

T5 sequence (P28223 whole entry): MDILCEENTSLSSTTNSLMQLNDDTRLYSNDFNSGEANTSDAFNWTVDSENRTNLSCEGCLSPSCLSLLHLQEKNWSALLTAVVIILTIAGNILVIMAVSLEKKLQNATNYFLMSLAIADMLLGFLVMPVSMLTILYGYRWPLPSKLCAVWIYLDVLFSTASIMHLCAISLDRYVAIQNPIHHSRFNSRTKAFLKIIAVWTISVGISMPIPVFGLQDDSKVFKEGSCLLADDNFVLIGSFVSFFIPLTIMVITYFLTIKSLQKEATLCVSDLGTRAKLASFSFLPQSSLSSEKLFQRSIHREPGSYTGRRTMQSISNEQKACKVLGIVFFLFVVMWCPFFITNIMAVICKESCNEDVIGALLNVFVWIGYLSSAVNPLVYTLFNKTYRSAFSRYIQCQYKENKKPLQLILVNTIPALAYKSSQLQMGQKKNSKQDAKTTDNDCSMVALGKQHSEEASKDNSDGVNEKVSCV
Chain of 5HT1Dα (P28221 whole entry): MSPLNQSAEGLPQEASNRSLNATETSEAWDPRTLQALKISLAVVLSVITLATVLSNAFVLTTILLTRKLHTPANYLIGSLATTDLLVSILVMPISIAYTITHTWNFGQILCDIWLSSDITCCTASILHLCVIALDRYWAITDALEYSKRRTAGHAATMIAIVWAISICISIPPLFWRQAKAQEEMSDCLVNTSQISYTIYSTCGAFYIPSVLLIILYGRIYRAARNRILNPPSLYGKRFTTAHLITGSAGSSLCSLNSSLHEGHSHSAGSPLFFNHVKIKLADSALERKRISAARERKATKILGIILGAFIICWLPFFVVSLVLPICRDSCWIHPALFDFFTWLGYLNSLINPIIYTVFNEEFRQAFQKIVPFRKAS
Chain of 5HT7 (P34969 1-445 isoform P34969-2): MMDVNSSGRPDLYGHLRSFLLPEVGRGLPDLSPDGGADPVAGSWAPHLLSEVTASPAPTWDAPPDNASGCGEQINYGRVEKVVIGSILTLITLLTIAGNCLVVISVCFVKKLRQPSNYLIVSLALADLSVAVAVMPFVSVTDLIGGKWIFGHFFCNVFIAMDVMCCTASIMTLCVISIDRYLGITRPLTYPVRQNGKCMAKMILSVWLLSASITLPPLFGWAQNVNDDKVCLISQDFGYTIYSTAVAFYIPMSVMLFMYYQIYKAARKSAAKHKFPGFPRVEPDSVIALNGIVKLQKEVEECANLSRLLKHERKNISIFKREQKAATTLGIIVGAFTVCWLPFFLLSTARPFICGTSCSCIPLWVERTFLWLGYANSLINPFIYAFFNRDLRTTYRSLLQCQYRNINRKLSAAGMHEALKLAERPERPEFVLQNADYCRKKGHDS

SMILES | pKi α1b (α1b) | pKi 5HT1Dα (5HT1Dα) | Two-hour food intake of food-deprived rats, percentage of intake compared to control rats, Mean (food intake) [%] | pKi 5HT7 (5HT7) | pKi α1a (α1a) | Ki (human Y2 receptor) [µM] | Ki (human Y1 receptor) [µM] | pKi 5HT2 (5HT2) | pKi α2c (α2c) | pKi 5HT1Dβ (5HT1Dβ)
Cl.O=S(=O)(NC[C@H]1CC[C@H](CNCC2CCc3ccccc3C2)CC1)c1cccc2ccccc12 (mixture of isomers) [Compound 19] | 7.35 | 6.04 | 36 | 6.42 | 7.47 | 0.955 | 3.55 | 6.55 |  | 
Cl.O=[N+]([O-])c1ccccc1S(=O)(=O)NC[C@H]1CC[C@H](CNCC2CCc3ccccc3C2)CC1 (mixture of isomers) [Compound 20] | 7.22 | 5.94 | 35 | 6.37 | 7.72 | 7.76 | 16 | 5.93 | 7.39 | 5.37
Cl.Cl.Nc1ccccc1S(=O)(=O)NC[C@H]1CC[C@H](CNCC2CCc3ccccc3C2)CC1 (mixture of isomers) [Compound 22] | 6.98 | 5.98 | 55 | 6.39 | 7.34 | 7.57 | 17.2 | 5.99 | 7.15 | 5.41
